Reference: patent US20220280490A1, “TREATMENT OF FRAGILE X SYNDROME” (HEALX LTD, priority 2019, published 2022)

Tests used:
Format in all cases: in vivo, mouse
Conditions in all cases: 12 mg/kg ibudilast, compared with WT vehicle
Fmr1 KO2 mice [1] = test: Nesting
Source text: (§1) Fmr1 knockout 2 (Fmr1 K02) mice were generated by deletion of the promoter and first exon of Fmr1. The Fmr1 KO2 it is both, protein and mRNA null. In this study we used Fmr1 KO2 and wild-type (WT) littermates generated on a C57BL/6J background and repeatedly backcrossed onto a C57BL/6J background for more than eight generations.
(§2) There were four treatment groups per compound in the study with 10 male mice used per treatment group (all at 8 weeks of age): Group 1: wild-type littermate mice treated with vehicle (WT-Veh), Group 2: Fmr1 KO2 mice treated with vehicle (KO-Veh), Group 3: Fmr1 KO2 mice treated with 12 mg/kg ibudilast (KO-ibudilast).
(§3) For experiments, all mice were tested once in the same apparatus. Prior to testing, mice were placed in the apparatus for some minutes before the experiment. The apparatus was cleaned with moist and dry tissues before testing each mouse. […] We assessed weight loss, fur loss, walking, eyes open, eye discharges and general behavior.
The test was performed in individual cages. […] Mice were placed individually into the nesting cages 1 hr. before the dark phase, and the results were assessed the next morning. Nest building was scored on a 5 point scale. […]
(§4) Data were analyzed by one-way ANOVA with a Dunnett's multiple comparison post hoc test in which WT Vehicle group was used as reference and compared with all the other groups

Fmr1 KO2 mice [2] = test: Open field (hyperactivity)
Source text: as §1, §2
For experiments, all mice were tested once in the same apparatus. Prior to testing, mice were placed in the apparatus for some minutes before the experiment. […] We assessed weight loss, fur loss, walking, eyes open, eye discharges and general behavior.
The open-field apparatus was used to test hyperactivity. […] The number of squares entered by the whole body (locomotor activity) was counted. The movement of the mouse around the field was recorded with a video tracking device for 3 min (version NT4.0, Viewpoint).
as §4

Fmr1 KO2 mice [3] = test: Three-chambered sociability task (social interaction)
Source text: as §1, §2, §3
In the three-chambered sociability task, a subject mouse was evaluated for its exploration of a novel social stimulus (novel mouse). […] The time spent exploring the novel mice was scored as exploration ratio.
as §4

Fmr1 KO2 mice [4] = test: Contextual fear conditioning
Source text: as §1, §2
For experiments, all mice were tested once in the same apparatus. Prior to testing, mice were placed in the apparatus for some minutes before the experiment. The apparatus was cleaned with moist and dry tissues before testing each mouse. The aim was to create a low but constant background mouse odor for all experimental subjects. Testers were blind to the genotype and treatment during all testing and data analysis. We assessed weight loss, fur loss, walking, eyes open, eye discharges and general behavior. […]
as §4

CC(C)C(=O)c1c(C(C)C)nn2ccccc12 [ibudilast, 2-methyl-1-(2-propan-2-ylpyrazolo[1,5-a]pyridin-3-yl)propan-1-one]
fully rescued: nesting (nest building score) (Fmr1 KO2 mice [1]) | open field (hyperactivity, locomotor activity) (Fmr1 KO2 mice [2]) | sociability (exploration ratio) (Fmr1 KO2 mice [3]) | fear conditioning (freezing response) (Fmr1 KO2 mice [4])
